The subject of data set [1] is Mesenchymal Stem Cells (MSCs). Put plainly: Phase I study: MSC mobilization, MesenCult assay. To be noted: for MSC mobilization into peripheral blood, single agent: MesenCult. Format: in vivo, human. The method, then:
To evaluate the number of MSCs in the blood, a MesenCult assay was used at different time points following BL-8040 administration (0.75 mg/Kg FIGS. 1-2, or 1 mg/Kg FIGS. 3-4)) to healthy subjects-as described above.
White blood cells (WBCs) obtained from 100 μl blood, were plated in MesenCult medium (2 ml).
The number of MSCs colonies and MS cells were visually scored 15 days later, using a light microscope, and the frequency of MSC colonies and MSCs was calculated.

A further data set deals with white blood cells (WBC). The experiment in a line: Phase I study: WBC mobilization to peripheral blood. It is filed as in vivo, human. Particulars: 4 hours post dose, baseline 6.31. An excerpt: (§1) Mean CD34+ count at baseline was 5.81/μL.
Data set [2] has as its system long term repopulating cells. Particulars: mice, single injection; cited from earlier work.
The test system of data set [3] is T cells, B cells and NK cells. Put plainly: Phase I study: FACS analysis of lymphocyte mobilization. Format: in vivo, human.
From the text: as §1
(Flow cytometry measures light scatter and fluorescence of single cells or particles in a stream.)

Data set [4] has as its target T1, CXCR4 (Homo sapiens, UniProt P61073). Put plainly: Phase I study: receptor occupancy and pharmacodynamic effect. Format: in vivo. Also noted: endogenous in cells; host or cells: peripheral blood cells (CD34+, lymphocyte, mononuclear populations) of healthy volunteers. Particulars: post dosing.
From the text: as §1
Target sequence in this assay (P61073 whole entry): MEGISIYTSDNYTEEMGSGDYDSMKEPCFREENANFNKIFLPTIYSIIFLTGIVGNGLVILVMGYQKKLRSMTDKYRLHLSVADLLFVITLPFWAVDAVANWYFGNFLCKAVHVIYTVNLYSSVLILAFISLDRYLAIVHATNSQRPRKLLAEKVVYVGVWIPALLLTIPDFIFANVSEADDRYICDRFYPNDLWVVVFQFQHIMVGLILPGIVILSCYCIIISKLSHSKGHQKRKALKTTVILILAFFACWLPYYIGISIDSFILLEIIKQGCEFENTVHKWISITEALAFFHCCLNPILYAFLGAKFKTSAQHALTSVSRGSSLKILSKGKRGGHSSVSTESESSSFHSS

For data set [5] the following is noted: human, in vivo.
Experimental: To test the effect of BL-8040 (SEQ ID NO: 1) on mesenchymal stem cell mobilization a two-part study was performed. The first part of the study was randomized, double-blind, placebo-controlled dose escalation study. In each cohort, six volunteers were administrated twice (altogether) on day one and two with BL-8040 (First cohort 0.5 mg/kg, Second cohort 0.75 mg/kg and Third 1.0 mg/kg) and 2 were administrated with placebo. […] BL-8040's safety, tolerability and pharmacokinetic profile were also evaluated on this part.
The test system of a further data set is HSC (CD34+ cells). Put plainly: Phase I study: mobilization of HSC (CD34+ cells). It is filed as in vivo, human.
From the text: as §1

The next data set concerns HPC colony forming cells. The experiment in a line: Phase I study: HPC colony forming cell mobilization. Format: in vivo, human. To be noted: 4-8 hr post injection.
From the text: as §1

A further data set concerns CD34 (+) cells. Particulars: MM patients, combined with G-CSF, single administration; cited from earlier work.
Data set [6] concerns the target T1, CXCR4. To be noted: cited from earlier work.
Target sequence in this assay (P61073 whole entry, species assumed): as the sequence (P61073 whole entry) above
In another data set the test system is MSCs. Particulars: without cytokines such as PDGF, VEGF, IGF-1 or SCF; cited from earlier work.

The values below come from patent US20180142211A1, “METHODS OF MESENCHYMAL STEM CELL MOBILIZATION AND EXPANSION” (Biokine Therapeutics Ltd, priority 2015, published 2018).

“Also recorded” adds a separate entry of the source.

As for “4F-benzoyl-Arg-Arg-Nal-Cys-Tyr-Cit-Lys-DLys-Pro-Tyr-Arg-Cit-Cys-Arg-NH2 [BL-8040]”, the “mobilization of Mesenchymal Stem Cells (MSCs)” value in [1] (4-8 hr post injection) is recorded as “rapid mobilization of MSCs”. The “MSC mobilization into peripheral blood, single agent” value in [1] (Cohort 2 (0.75 mg/Kg), 15 days culture (FIGS. 1-2), 0.75 mg/kg) is given as “mobilizes mesenchymal stem cells (MSCs) into peripheral blood (PB); also recorded: mobilizes MSCs into the PB”; in [1] (Cohort 3 (1 mg/Kg), 15 days culture (FIGS. 3-4), 1 mg/kg), “mobilizes mesenchymal stem cells (MSCs) into peripheral blood (PB); also recorded: mobilizes MSCs into the PB”. Besides, the “mean WBC count” value with white blood cells (WBC) stood at 2.968e+10 L⁻¹. Also, in [2], the “mobilization of long term repopulating cells for transplantation” value was “sufficient to mobilize enough long term repopulating cells for transplantation”. Moreover, in data set [3], the “mobilization of T cells, B cells and NK cells” value is given as “substantial mobilization”. Also, on CXCR4 [4], the “duration of receptor occupancy and pharmacodynamics effect” value was ≥ 24 h. Further, the appearance in plasma entry in data set [5] was “rapid”. In addition, the half-life result in [5] is on record as “short”. Moreover, the “mean CD34 count” value turned out to be 38 µL⁻¹ in the data set on HSC (CD34+ cells) (0.5 mg/kg, 4 hour post the second dose, placebo 9); 37 µL⁻¹ in the data set with HSC (CD34+ cells) (0.5 mg/kg, four hours post dose, baseline 5.81/μL, placebo 8); 46 µL⁻¹ in the data set with HSC (CD34+ cells) (0.75 mg/kg, 4 hour post the second dose, placebo 9); 31 µL⁻¹ with HSC (CD34+ cells) (0.75 mg/kg, four hours post dose, baseline 5.81/μL, placebo 8); 58 µL⁻¹ in the data set on HSC (CD34+ cells) (1 mg/kg, 4 hour post the second dose, placebo 9); 35 µL⁻¹ in the data set on HSC (CD34+ cells) (1 mg/kg, four hours post dose, baseline 5.81/μL, placebo 8). The “CD34+ count in all subjects” value with HSC (CD34+ cells) (1 mg/kg, 4 hours post single administration, all subjects) was “more than 20 CD34+/μL”. For the same compound, the “mobilization of HSC (CD34+ cells)” value with HSC (CD34+ cells) (across all doses tested) is “Dramatic mobilization”. Also, the “mobilization of HPC colony forming cells” value with HPC colony forming cells is reported as “rapid mobilization”. The “stem cell mobilization (CD34 (+) cell collection in one aphaeresis procedure)” value in the data set on CD34 (+) cells was “efficient stem cell mobilizer”. Besides, at CXCR4 [6], the “off-rate of the receptor” value is on record as “slow off-rate”. The Kd on CXCR4 [6] (high affinity, read-out: affinity of binding to CXCR4) was 1 to 2 nM.
Regarding `c1cc(CN2CCCNCCNCCCNCC2)ccc1CN1CCCNCCNCCCNCC1` [AMD3100], the “MSC mobilization by the agent alone” value in the data set with MSCs is on record as “not sufficient to mobilize MSCs”.
